From article PMC10601436 (ACS Omega, 2023)
Peptide text beside a SMILES is read from it.

These compounds were tested against hDPP-IV (Homo sapiens, UniProt P27487) (assay: DPP-IV inhibitory assay).
Chain of hDPP-IV (P27487 whole entry): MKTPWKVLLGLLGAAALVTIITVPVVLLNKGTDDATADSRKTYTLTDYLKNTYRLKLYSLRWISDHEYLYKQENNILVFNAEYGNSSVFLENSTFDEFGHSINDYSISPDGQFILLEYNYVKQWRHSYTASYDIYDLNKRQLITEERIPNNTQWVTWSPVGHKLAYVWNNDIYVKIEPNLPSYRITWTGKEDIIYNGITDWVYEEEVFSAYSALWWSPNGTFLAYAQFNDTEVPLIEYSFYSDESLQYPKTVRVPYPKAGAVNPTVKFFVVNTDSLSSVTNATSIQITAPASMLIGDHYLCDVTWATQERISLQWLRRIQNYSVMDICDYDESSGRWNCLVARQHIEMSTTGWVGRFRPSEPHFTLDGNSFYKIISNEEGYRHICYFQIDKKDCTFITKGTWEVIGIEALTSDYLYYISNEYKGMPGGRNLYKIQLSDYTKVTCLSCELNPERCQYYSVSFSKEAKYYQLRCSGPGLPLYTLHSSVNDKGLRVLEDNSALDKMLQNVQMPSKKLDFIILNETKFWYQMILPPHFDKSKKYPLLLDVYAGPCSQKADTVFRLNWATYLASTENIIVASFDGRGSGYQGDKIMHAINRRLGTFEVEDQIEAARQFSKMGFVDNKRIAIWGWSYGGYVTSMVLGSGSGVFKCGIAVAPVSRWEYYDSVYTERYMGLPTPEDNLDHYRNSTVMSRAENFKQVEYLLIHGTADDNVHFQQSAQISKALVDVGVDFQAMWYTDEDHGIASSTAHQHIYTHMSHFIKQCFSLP
Type: biochemical
Compound `CC(C)[C@H](NC(=O)[C@@H](N)Cc1c[nH]c2ccccc12)C(=O)N[C@@H](Cc1ccccc1)C(=O)O` [WVF] (H-Trp-Val-Phe-OH) has an IC50 of 188 µM.
With `CC(C)[C@H](NC(=O)[C@@H](N)Cc1c[nH]c2ccccc12)C(=O)NCC(=O)O` [WVG] (H-Trp-Val-Gly-OH) the IC50 was 341 µM.
Work on `CC(C)[C@H](NC(=O)[C@@H](N)Cc1c[nH]c2ccccc12)C(=O)N[C@@H](Cc1c[nH]cn1)C(=O)O` [WVH] (H-Trp-Val-His-OH) yielded an IC50 of 257 µM.
With `CC(C)[C@H](NC(=O)[C@@H](N)Cc1c[nH]c2ccccc12)C(=O)N[C@@H](CCCCN)C(=O)O` [WVK] (H-Trp-Val-Lys-OH) the IC50 was 331 µM.
In the case of `CC(C)C[C@H](NC(=O)[C@@H](NC(=O)[C@@H](N)Cc1c[nH]c2ccccc12)C(C)C)C(=O)O` [WVL] (H-Trp-Val-Leu-OH), the IC50 is reported as 399 µM.
`CSCC[C@H](NC(=O)[C@@H](NC(=O)[C@@H](N)Cc1c[nH]c2ccccc12)C(C)C)C(=O)O` [WVM] (H-Trp-Val-Met-OH) showed an IC50 of 317 µM.
Work on `CC(C)[C@H](NC(=O)[C@@H](N)Cc1c[nH]c2ccccc12)C(=O)N[C@@H](CC(N)=O)C(=O)O` [WVN] (H-Trp-Val-Asn-OH) yielded an IC50 of 373 µM.
Work on `CC(C)[C@H](NC(=O)[C@@H](N)Cc1c[nH]c2ccccc12)C(=O)N1CCC[C@H]1C(=O)O` [WVP] (H-Trp-Val-Pro-OH) yielded an IC50 of 402 µM.
`CC(C)[C@H](NC(=O)[C@@H](N)Cc1c[nH]c2ccccc12)C(=O)N[C@@H](CO)C(=O)O` [WVS] (H-Trp-Val-Ser-OH) gave an IC50 of 247 µM.
Compound `CC(C)[C@H](NC(=O)[C@@H](N)Cc1c[nH]c2ccccc12)C(=O)N[C@H](C(=O)O)[C@@H](C)O` [WVT] (H-Trp-Val-Thr-OH) has an IC50 of 336 µM.
`CC(C)[C@H](NC(=O)[C@@H](NC(=O)[C@@H](N)Cc1c[nH]c2ccccc12)C(C)C)C(=O)O` [WVV] (H-Trp-Val-Val-OH) gave an IC50 of 275 µM.
`CC(C)[C@H](NC(=O)[C@@H](N)Cc1c[nH]c2ccccc12)C(=O)N[C@@H](Cc1c[nH]c2ccccc12)C(=O)O` [WVW] (H-Trp-Val-Trp-OH) was tested, and the IC50 was 239 µM.
Work on `CC(C)[C@H](NC(=O)[C@@H](N)Cc1c[nH]c2ccccc12)C(=O)N[C@@H](Cc1ccc(O)cc1)C(=O)O` [WVY] (H-Trp-Val-Tyr-OH) yielded an IC50 of 215 µM.
